Literature values in patent US5843942A, “Aromatic amino ethers as pain relieving agents” (Zeneca Limited, priority 1994, dated 1998).

In the case of CC(=O)NNC(=O)N1Cc2ccccc2Oc2ccc(Cl)cc21 [SC-19220], the “block of the effect of PGE2” value (guinea pig ileum) is given as “blocks the effect of PGE2”, the “block of the effect of PGE2” value (dog fundus) is given as “blocks the effect of PGE2” and the “block of the effect of PGE2” value (cat trachea) is given as “not on other tissues such as the cat trachea”.
